# Results: ChEMBL document CHEMBL1135094, “Potent, orally active inhibitors of lipoprotein-associated phospholipase A(2): 1-(biphenylmethylamidoalkyl)-pyrimidones” (Bioorg Med Chem Lett, 2002)
# Target: T1, Platelet-activating factor acetylhydrolase (Homo sapiens, UniProt Q13093)
# T1 sequence (Q13093 whole entry): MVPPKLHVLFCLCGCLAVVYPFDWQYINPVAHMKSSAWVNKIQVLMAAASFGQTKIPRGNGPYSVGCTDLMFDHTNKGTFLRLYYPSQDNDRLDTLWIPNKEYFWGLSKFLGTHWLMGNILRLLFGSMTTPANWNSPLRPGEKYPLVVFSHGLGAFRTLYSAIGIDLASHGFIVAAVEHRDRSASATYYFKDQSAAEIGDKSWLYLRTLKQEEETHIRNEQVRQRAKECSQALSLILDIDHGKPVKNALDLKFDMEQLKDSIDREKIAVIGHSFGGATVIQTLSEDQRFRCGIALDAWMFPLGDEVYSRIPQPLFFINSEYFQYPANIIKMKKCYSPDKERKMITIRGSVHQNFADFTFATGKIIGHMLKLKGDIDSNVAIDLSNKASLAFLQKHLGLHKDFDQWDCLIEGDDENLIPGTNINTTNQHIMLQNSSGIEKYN
# Test: Inhibitory activity against recombinant human Lp-PLA2 (Lp-PLA2).
row,SMILES,IC50
1,O=C(Cn1cc(Cc2cncnc2)c(=O)nc1SCc1ccc(F)cc1)NCc1ccc(-c2ccccc2)cc1,4 nM
2,COc1ncc(Cc2cn(CCCC(=O)N(C)Cc3ccc(-c4ccc(Cl)cc4)cc3)c(SCc3ccc(F)cc3)nc2=O)cn1,5 nM
3,COc1ncc(Cc2cn(CC(=O)N(C)Cc3ccc(-c4ccc(F)cc4)cc3)c(SCc3ccc(F)cc3)nc2=O)cn1,0.6 nM
4,COc1ncc(Cc2cn(CC(=O)N(C)Cc3ccc(-c4ccc(C(F)(F)F)cc4)cc3)c(SCc3ccc(F)cc3)nc2=O)cn1,0.2 nM
5,Cn1cc(Cc2cn(CCCC(=O)NCc3ccc(-c4ccccc4)cc3)c(SCc3ccc(F)cc3)nc2=O)cn1,5 nM
6,CN(Cc1ccc(-c2ccc(Cl)cc2)cc1)C(=O)Cn1cc(Cc2cnc(N3CCOCC3)nc2)c(=O)nc1SCc1ccc(F)cc1,1 nM
7,O=C(Cn1cc(Cc2cncnc2)c(=O)nc1SCc1ccc(F)cc1)NCc1ccccc1-c1ccccc1,194 nM
8,O=C(Cn1cc(Cc2cncnc2)c(=O)nc1SCc1ccc(F)cc1)NCc1cccc(-c2ccccc2)c1,24 nM
9,CCn1cc(Cc2cn(CC(=O)N(C)Cc3ccc(-c4ccc(Cl)cc4)cc3)c(SCc3ccc(F)cc3)nc2=O)cnc1=O,0.5 nM
10,CN(Cc1ccc(-c2ccc(Cl)cc2)cc1)C(=O)Cn1cc(Cc2cnc(N(C)C)nc2)c(=O)nc1SCc1ccc(F)cc1,0.8 nM
11,Cn1cc(Cc2cn(CCCC(=O)NCc3ccc(-c4ccc(F)cc4)cc3)c(SCc3ccc(F)cc3)nc2=O)cn1,4 nM

# Now from value to compound:
row,IC50,SMILES
1,4 nM,COc1ncc(Cc2cn(CCCC(=O)NCc3ccc(-c4ccccc4)cc3)c(SCc3ccc(F)cc3)nc2=O)cn1
2,8 nM,CN(Cc1ccc(-c2ccc(F)cc2)cc1)C(=O)CCCn1cc(Cc2cnn(C)c2)c(=O)nc1SCc1ccc(F)cc1
3,0.5 nM,COc1ncc(Cc2cn(CC(=O)NCc3ccc(-c4ccc(Cl)cc4)cc3)c(SCc3ccc(F)cc3)nc2=O)cn1
4,4 nM,COc1ncc(Cc2cn(CCCC(=O)NCc3ccc(-c4ccc(Cl)cc4)cc3)c(SCc3ccc(F)cc3)nc2=O)cn1
5,5 nM,CN(Cc1ccc(-c2ccc(Cl)cc2)cc1)C(=O)Cn1cc(Cc2cnc(C(F)(F)F)nc2)c(=O)nc1SCc1ccc(F)cc1
6,8 nM,CN(Cc1ccc(-c2ccccc2)cc1)C(=O)Cn1cc(Cc2cncnc2)c(=O)nc1SCc1ccc(F)cc1
